The source of these data is US20200017603A1, “NOVEL USES OF PCSK9 INHIBITORS AND RELATED MEDICATIONS” (BHL PATENT HOLDINGS, LLC, priority 2016, published 2020).

Like-named read-outs stand apart in the source and are kept apart here.

The nature of data set [1]: Patient with chronically elevated liver enzymes and bilirubin treated with Praluent brand alirocumab. The class given is in vivo, human. The settings on record: middle age person. From the text: A middle age person had chronically elevated AST, ALT and gamma glutamyl transferase and elevated bilirubin levels and clay colored stools. There was no viral hepatitis. […] The patient also felt less fatigued.

Data set [2] relates to CD81. The experiment in a line: CD81 expression in vivo in PCSK9-/- mice after alirocumab. The settings on record: after administering alirocumab. As for the experimental part: (§1) CD81 expression in vivo in PCSK9−/−mice and in hyperlipidemic mice expressing human PCSK9 with reduced LDLR expression (PCSK9hum/hum/LDLR+/−) were tested after administering alirocumab; no changes in total CD81 levels were observed. […] Based on conflicting data, the relevant scientific literature is currently considered inadequate to conclusively address the potential impact of alirocumab on HCV infectivity. It should be noted that increased cell-surface LDLR has also been postulated to modulate HCV infectivity; statins, like alirocumab, increase cell-surface LDLR.

The test system of data set [3] is CD81. The experiment in a line: CD81 expression in vivo in hyperlipidemic PCSK9hum/hum/LDLR+/- mice after alirocumab. Particulars: hyperlipidemic mice expressing human PCSK9 with reduced LDLR expression (PCSK9hum/hum/LDLR+/-), after administering alirocumab. As for the experimental part:
as §1

The next data set concerns HCV. The experiment in a line: HCV infectivity and replication kinetics in vitro with extracellular PCSK9 in presence/absence of alirocumab. The class given is cell-based. Particulars: addition of extracellular PCSK9 in the presence/absence of alirocumab.
For data set [4] the following is noted: monkeys, 3-month, co-administered with atorvastatin at doses producing modest ALT increases; cited from earlier work.
The conditions of data set [5]: humans administered alirocumab; cited from earlier work.
The conditions of data set [6]: cited from earlier work.
For data set [7] the following is noted: monkey, cited from earlier work.
For data set [8] the following is noted: monkey, in vivo; cited from earlier work.
The conditions of data set [9]: monkey, in vivo; cited from earlier work. This is another data set of the same source.
The conditions of data set [10]: rat, in vivo; cited from earlier work.
For data set [11] the following is noted: rat, in vivo; cited from earlier work. This is another data set of the same source.
For data set [12] the following is noted: monkey, in vivo; cited from earlier work. This is another data set of the same source.
[13] abbreviates: chronically elevated, no viral hepatitis, after treatment for 1-2 months.

On to alirocumab, for which, in data set [1] (setting [13]), the ALT entry is recorded as “returned to normal”, the AST entry is listed as “returned to normal” and the gamma glutamyl transferase entry is on record as “returned to normal”. Further, the bilirubin levels result in [1] (elevated, after treatment for 1-2 months) is on record as “returned to normal”. In addition, in data set [1] (after treatment), the fatigue entry is given as “less fatigued”. Also, the clay colored stools entry in data set [1] (after treatment for 1-2 months) is “became normal”. Moreover, the “total CD81 levels” value in the data set on CD81 [2] is reported as “no changes”. Besides, the “total CD81 levels” value in the data set with CD81 [3] was “no changes”. For the same substance, in the data set with HCV, the “effects on HCV infectivity” value is listed as “No effects” and the “effects on HCV replication kinetics” value was “No effects”. For the same substance, the liver toxicity result in data set [4] is “not exacerbated”. Also, the HDL-C result in data set [5] was “not reduced”. Further, the “sinusoidal cell defects in the liver” value in data set [6] (rat, in vivo) is on record as “sinusoidal cell defects were observed”. The HDL result in [6] (rats administered alirocumab) is “low HDL”. Also, in data set [7] (in vivo), the “sinusoidal cell defects in the liver (this phenomenon)” value was “not observed”. The HDL-C levels result in [7] is on record as “greatly reduced”. Also, in data set [8], the “effects on T-cell dependent antibody response” value is given as “no effects”, the “effects on cytotoxic T-cell activity” value was “no effects”, the “effects on immune cell populations” value was “no effects” and the “effects on natural killer cell activity” value is “no effects”. Further, the imbalances for infections result in data set [9] is “no imbalances”. Besides, the imbalances for infections entry in data set [10] is “no imbalances”. For the same substance, the “alirocumab-related effects on peripheral neurons” value in data set [11] was “No significant alirocumab-related effects”. Also, the “alirocumab-related effects on peripheral neurons” value in [12] was “No significant alirocumab-related effects”.
